The record followed here is patent publication US20140057915A1, “KINASE INHIBITORS” (TOPIVERT PHARMA LIMITED, priority 2012, published 2014).

Each structure is given as a SMILES string. Read-outs that look alike come from different tables or passages of the source.

One series concerns the target p38 MAPKα (Homo sapiens, UniProt Q16539). Briefly: Enzyme binding assay (Kinomescan). The following applies: read-out: % Inhibition of kinase binding at 500 nM, p38 MAPKα. Here is the method: (§1) Enzyme Binding Assays (Kinomescan)
(§2) The kinase enzyme binding activities of compounds disclosed herein were determined using a proprietary assay which measures active site-directed competition binding to an immobilized ligand (Fabian, M. A. et al., Nature Biotechnol., 2005, 23:329-336). These assays were conducted by DiscoverX (formerly Ambit; San Diego, Calif.). The percentage inhibition produced by incubation with a test compound is calculated relative to the non-inhibited control.

Another series deals with GSK3α (Homo sapiens, UniProt P49840). Briefly: Enzyme binding assay (Kinomescan). The following applies: read-out: % Inhibition of kinase binding at 500 nM, GSK3α. Here is the method: (§3) These assays were conducted by DiscoverX (formerly Ambit; San Diego, Calif.). The percentage inhibition produced by incubation with a test compound is calculated relative to the non-inhibited control.

In the next series the target is cSrc (Homo sapiens, UniProt P12931). The experiment in a line: Enzyme binding assay (Kinomescan). The following applies: read-out: % Inhibition of kinase binding at 500 nM, cSrc. Here is the method: as §3
The next series concerns the target p38 MAPKγ (Homo sapiens, UniProt P53778). Briefly: Enzyme binding assay (Kinomescan). The following applies: read-out: % Inhibition of kinase binding at 500 nM, p38 MAPKγ. The method, then:
as §1, §3

The next series has as its target B-Raf (V600e) (Homo sapiens, UniProt P15056, V600E). Briefly: Enzyme binding assay (KINOMEscan). Here is the method:
as §2

Series [1] relates to 71 receptors and 26 enzymes. Briefly: Diversity Profile (Cerep). It counts as binding. The following applies: 300 nM. The method, then: Studies were conducted by Cerep (Celle-Lévescault, France) to investigate the binding of the compound of Example 77 to a diverse selection of receptors and to investigate either the inhibition or activation of a selection of enzymes (the “Diversity Profile” comprising a total of 71 receptors and 26 enzymes).

Series [2] relates to Salmonella typhimurium, strains TA98 and TA100. Briefly: Mutagenicity assessment (bacterial reverse mutation screen). The following applies: presence or absence of S-9 mix; up to 5000 μg/plate. Here is the method: Mutagenicity Assessment (Bacterial Reverse Mutation Screen)
Studies were conducted by Sequani (Ledbury, Herefordshire, UK) to assess the compound of Example 77 in vitro for its ability to induce mutations in two histidine dependent auxotrophic mutants of Salmonella typhimurium, strains TA98 and TA100.
The mutation screen was conducted using the plate incorporation method and was performed in both the presence and absence of S-9 mix (a liver post-mitochondrial fraction derived from the livers of Aroclor 1254 treated rats). The bacteria were exposed to the compound of Example 77 dissolved in dimethylsulphoxide, which solvent was also used as the negative control. The dose levels used were 0.32, 1.6, 8, 40, 200, 1000 or 5000 μg/plate.

In a further series the target is CYP3A4 (Homo sapiens, UniProt P08684). Briefly: Time-dependent inhibition of cytochromes (CYP450 TDI). The following applies: human, pooled human liver microsomes, pH 7.4, probe midazolam, CYP3A4 (midazolam probe), 15 μM, human hepatic microsomes, read-out: 15 μM % Inh. Format: in vitro ADME. The method, then:
(§4) (ii) Time-Dependent Inhibition of Cytochromes
(§5) CYP450 time-dependent inhibition (TDI) assays were performed with test compound at six test concentrations, 0.062 μM to 15 μM (n=2). The test compounds was pre-incubated for 30 minutes with pooled human hepatic microsomes in 0.1 M Tris buffer, pH 7.4, at 37° C. in the presence of cofactor NADPH. A parallel series of incubations (n=2) were prepared with no pre-incubation. Probe substrates were then added (with additional cofactor) and further incubated for the times specified. Concentrations of probe substrates used in the incubations have been optimised to maintain first order reaction conditions.
(§6) Reactions were terminated with acetonitrile containing analytical internal standard (carbamazepine), samples then centrifuged to remove microsomal protein and analysed using optimised LC/MS-MS conditions. The MS data were normalised to internal standard and compared to the appropriate solvent controls to determine the amount of metabolite formed from the probe substrate relative to the “uninhibited” controls. The results are quoted as % inhibition. These values were then plotted using the sigmoidal dose response equation (shown below) and IC50's calculated.
(§7) Y=bottom+((top-bottom)/1+10̂((Log IC50−X)*Hill slope)) • X=Log concentration • Y=response
(§8) Variation in probe turnover between plate wells means that inhibition values recorded below 10-15% may not be significant.

In another series the target is CYP450 (Homo sapiens, UniProt P11712). Described as above. It counts as in vitro ADME. The following applies: CYP2C9 (diclofenac probe), human hepatic microsomes. Here is the method:
as §4, §5, §6, §7, §8

A further series has as its system SCID mice. The experiment in a line: Adoptive transfer in mice. The following applies: mouse. Here is the method:
(D) Adoptive Transfer in Mice
On Study day 0, female Balb/C mice are terminated and spleens obtained for CD45RB^high cell isolation (Using SCID IBD cell Separation protocol). Approximately 4×10^5 cells/mL CD45RB^high cells are then injected IP (100 μL/mouse) into female SCID animals. On study day 14, mice are weighed and randomized into treatment groups based on body weight. On Day 21, compounds are administered BID, via oral gavage, in a peanut oil vehicle at the dose levels outlined below and a dose volume of 5 mL/kg. Treatment continues until study day 42, at which point the animals are necropsied 4 hours after am administration. The colon length and weight is recorded and used as a secondary endpoint in the study as a measurement of colon oedema. The colon is then divided into six cross-sections, four of which are used for histopathology scoring (primary endpoint) and two are homogenised for cytokine analysis. Data shown is the % inhibition of the induction window between naïve animals and vehicle animals, where higher inhibition implies closer to the non-diseased, naïve, phenotype.

CYP3A4, sequence (P08684 whole entry): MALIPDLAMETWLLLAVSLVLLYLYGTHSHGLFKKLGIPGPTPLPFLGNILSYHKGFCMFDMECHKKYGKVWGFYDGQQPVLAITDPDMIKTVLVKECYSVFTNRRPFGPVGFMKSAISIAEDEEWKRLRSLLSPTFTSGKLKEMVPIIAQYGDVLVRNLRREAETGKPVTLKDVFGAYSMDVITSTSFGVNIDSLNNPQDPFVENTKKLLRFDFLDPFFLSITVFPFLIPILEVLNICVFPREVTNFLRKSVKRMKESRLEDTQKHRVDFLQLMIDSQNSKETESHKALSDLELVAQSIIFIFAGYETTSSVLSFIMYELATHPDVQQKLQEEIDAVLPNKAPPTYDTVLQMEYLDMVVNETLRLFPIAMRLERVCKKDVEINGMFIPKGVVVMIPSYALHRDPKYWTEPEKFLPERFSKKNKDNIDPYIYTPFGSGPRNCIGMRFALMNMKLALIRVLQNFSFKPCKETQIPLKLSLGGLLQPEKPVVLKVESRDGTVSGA
CYP450, sequence (P11712 whole entry): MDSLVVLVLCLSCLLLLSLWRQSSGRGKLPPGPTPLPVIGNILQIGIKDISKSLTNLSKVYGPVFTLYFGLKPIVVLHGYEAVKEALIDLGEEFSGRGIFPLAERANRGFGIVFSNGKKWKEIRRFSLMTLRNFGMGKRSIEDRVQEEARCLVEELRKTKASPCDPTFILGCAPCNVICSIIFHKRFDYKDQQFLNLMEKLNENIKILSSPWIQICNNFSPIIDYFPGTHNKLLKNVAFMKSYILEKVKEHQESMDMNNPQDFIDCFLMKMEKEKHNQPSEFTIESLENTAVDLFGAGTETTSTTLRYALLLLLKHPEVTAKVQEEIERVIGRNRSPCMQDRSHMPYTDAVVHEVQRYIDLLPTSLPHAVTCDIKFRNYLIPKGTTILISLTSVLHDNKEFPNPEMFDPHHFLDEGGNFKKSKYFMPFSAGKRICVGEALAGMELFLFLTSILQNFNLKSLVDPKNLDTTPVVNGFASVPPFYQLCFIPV
GSK3α, sequence (P49840 whole entry): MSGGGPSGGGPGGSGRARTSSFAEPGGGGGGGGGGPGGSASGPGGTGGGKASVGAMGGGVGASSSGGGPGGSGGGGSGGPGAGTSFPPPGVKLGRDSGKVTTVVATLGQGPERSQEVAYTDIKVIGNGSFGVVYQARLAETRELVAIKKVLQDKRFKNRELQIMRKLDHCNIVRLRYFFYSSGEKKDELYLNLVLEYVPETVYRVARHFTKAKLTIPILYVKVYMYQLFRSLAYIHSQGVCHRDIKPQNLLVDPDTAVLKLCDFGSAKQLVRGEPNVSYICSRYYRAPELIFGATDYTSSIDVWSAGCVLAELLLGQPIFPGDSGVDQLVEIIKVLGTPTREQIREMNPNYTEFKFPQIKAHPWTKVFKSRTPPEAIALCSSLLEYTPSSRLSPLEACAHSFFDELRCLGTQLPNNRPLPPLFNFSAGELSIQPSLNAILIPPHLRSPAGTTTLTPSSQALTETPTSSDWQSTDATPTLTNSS
p38 MAPKγ, sequence (P53778 whole entry): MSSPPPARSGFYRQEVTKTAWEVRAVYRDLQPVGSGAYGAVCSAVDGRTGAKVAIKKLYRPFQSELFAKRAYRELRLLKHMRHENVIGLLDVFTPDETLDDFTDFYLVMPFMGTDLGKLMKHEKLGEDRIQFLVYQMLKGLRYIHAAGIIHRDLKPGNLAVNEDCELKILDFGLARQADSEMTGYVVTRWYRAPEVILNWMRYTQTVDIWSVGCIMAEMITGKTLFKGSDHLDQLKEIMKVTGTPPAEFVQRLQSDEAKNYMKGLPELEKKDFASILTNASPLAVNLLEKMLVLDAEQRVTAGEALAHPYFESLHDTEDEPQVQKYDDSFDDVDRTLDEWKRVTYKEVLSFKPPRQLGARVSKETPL
p38 MAPKα, sequence (Q16539 whole entry): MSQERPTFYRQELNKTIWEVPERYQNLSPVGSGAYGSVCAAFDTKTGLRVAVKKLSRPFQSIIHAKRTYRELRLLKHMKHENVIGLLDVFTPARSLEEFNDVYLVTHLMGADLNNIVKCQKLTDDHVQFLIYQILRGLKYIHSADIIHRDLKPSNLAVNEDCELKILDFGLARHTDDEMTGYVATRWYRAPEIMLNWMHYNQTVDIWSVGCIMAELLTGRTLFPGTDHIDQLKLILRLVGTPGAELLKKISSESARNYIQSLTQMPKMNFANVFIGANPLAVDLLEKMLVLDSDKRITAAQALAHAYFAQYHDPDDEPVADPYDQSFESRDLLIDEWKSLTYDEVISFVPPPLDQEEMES
B-Raf (V600e), sequence (P15056 whole entry V600E): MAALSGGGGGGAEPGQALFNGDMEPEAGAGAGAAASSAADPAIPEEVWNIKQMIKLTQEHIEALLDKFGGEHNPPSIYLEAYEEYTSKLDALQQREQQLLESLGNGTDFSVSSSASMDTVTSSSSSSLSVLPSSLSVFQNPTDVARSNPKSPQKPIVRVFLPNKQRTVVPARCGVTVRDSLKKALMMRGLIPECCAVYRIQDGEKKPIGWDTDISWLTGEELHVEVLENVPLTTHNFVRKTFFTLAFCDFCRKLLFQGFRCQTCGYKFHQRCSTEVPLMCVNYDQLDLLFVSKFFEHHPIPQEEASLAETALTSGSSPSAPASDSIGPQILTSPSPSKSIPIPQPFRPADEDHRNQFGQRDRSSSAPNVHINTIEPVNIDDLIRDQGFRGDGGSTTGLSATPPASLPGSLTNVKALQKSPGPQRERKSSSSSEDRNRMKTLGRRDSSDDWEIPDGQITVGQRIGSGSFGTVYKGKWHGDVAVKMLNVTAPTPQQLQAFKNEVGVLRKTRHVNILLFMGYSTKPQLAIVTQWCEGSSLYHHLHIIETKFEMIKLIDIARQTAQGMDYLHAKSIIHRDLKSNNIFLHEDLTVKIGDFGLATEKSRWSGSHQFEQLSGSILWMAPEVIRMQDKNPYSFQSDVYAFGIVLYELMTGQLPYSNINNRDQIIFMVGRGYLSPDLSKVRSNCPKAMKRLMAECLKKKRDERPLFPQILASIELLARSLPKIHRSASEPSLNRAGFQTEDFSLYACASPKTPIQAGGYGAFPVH
cSrc, sequence (P12931 whole entry): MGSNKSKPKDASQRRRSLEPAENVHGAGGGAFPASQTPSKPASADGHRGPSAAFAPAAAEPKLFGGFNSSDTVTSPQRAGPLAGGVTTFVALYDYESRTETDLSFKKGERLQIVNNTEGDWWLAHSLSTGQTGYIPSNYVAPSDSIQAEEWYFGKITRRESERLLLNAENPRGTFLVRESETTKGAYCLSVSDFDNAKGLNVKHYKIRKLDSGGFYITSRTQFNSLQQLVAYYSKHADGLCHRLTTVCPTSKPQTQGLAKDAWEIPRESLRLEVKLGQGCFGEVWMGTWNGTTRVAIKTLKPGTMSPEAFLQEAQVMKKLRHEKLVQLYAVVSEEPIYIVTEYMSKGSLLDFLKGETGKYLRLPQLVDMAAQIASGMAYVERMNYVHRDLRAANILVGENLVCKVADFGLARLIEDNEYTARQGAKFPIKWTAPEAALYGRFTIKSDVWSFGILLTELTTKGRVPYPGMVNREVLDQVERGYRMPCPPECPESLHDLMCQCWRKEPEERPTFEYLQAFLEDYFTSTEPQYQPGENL

Consider `COc1cc(Nc2nccc(Oc3ccc(NC(=O)Nc4cc(C(C)C)nn4-c4ccc(C)cc4)c4ccccc34)n2)cc(C(=O)NCCN2CCOCC2)c1` [Example 8, 3-((4-((4-(3-(3-Isopropyl-1-(p-tolyl)-1H-pyrazol-5-yl)ureido)naphthalen-1-yl)oxy)pyrimidin-2-yl)amino)-5-methoxy-N-(2-morpholinoethyl)benzamide], for which the inhibition at 0.5 µM on p38 MAPKα came out at 95%; at GSK3α, 19%; on cSrc, 100%; at p38 MAPKγ it was 82%.

Turning to `C#Cc1cc(Nc2nccc(Oc3ccc(NC(=O)Nc4cc(C(C)(C)C)nn4-c4ccc(OC)cc4)c4ccccc34)n2)cc(C(=O)NCCN2CCOCC2)c1` [Example 77, 3-((4-((4-(3-(3-(tert-Butyl)-1-(4-methoxyphenyl)-1H-pyrazol-5-yl)ureido)-naphthalen-1-yl)oxy)pyrimidin-2-yl)amino)-5-ethynyl-N-(2-morpholinoethyl)benzamide], the “effect on the binding of the kinase B-Raf (V600e) to its standard ligand” value on B-Raf (V600e) is reported as “did not have any effect on the binding”. In addition, in series [1], the “inhibition of control specific binding in the receptor binding assays or enzyme assays” value is “less than 25%”. Moreover, the “revertant colonies (mutagenic effects)” value in series [2] was “no dose-related or statistically significant increases in revertant colonies”. Besides, the values for the inhibition at 15 µM at CYP3A4 (0 min preincubation) and at CYP3A4 (30 min preincubation) were 15% and 35%, respectively. For the same compound, the IC50 against CYP450 (0 min preincubation) and against CYP450 (30 min preincubation) was more than 15 µM in each case. Moreover, in the series with SCID mice, the “activity in adoptive transfer in vivo model of colonic inflammation” value is “significant activity”.
